This is an account of results in US7989625B2, “Thienopyridines” (Merck Patent GmbH, priority 2005, dated 2011).

The experiment addresses T1, human HSP90α (Homo sapiens, UniProt P07900).
T1 construct: host or cells: E. coli
In words: radioligand filter binding test, competition with [3H]17AAG for HSP90. To be noted: recombinant human HSP90α, [3H]17AAG 0.08 μM, 22° C., 30 min. The source says: The binding of geldanamycin or 17-allylamino-17-demethoxygeldanamycin (17AAG) to HSP90 and competitive inhibition thereof can be utilised in order to determine the inhibitory activity of the compounds according to the invention (Carreras et al. 2003, Chiosis et al. 2002).
In the specific case, a radioligand filter binding test is used. The radioligand used here is tritium-labelled 17-allylaminogeldanamycin, [3H]17AAG. This filter binding test allows a targeted search for inhibitors which interfere with the ATP binding site.
Recombinant human HSP90α (E. coli expressed, 95% purity); [3H]17AAG (17-allylaminogeldanamycin, [allylamino-2,3-^3H. Specific activity: 1.11×10^12 Bq/mmol (Moravek, MT-1717);
HEPES filter buffer (50 mM HEPES, pH 7.0, 5 mM MgCl2, BSA 0.01%) Multiscreen FB (1 μm) filter plate (Millipore, MAFBNOB 50).
The 96-well microtitre filter plates are firstly irrigated and coated with 0.1% of polyethylenimine.
The test is carried out under the following conditions: • Reaction temperature 22° C. • Reaction time: 30 min., shaking at 800 rpm • Test volume: 50 μl • Final Concentrations: • 50 mM HEPES HCl, pH 7.0, 5 mM MgCl2, 0.01% (w/v) BSA • HSP90:1.5 μg/assay • [3H]17AAG: 0.08 μM.
At the end of the reaction, the supernatant in the filter plate is removed by suction with the aid of a vacuum manifold (Multiscreen Separation System, Millipore), and the filter is washed twice.
The filter plates are then measured in a beta counter (Microbeta, Wallac) with scintillator (Microscint 20, Packard).
“% of control” is determined from the “counts per minutes” values and the IC-50 value of a compound is calculated therefrom.

A word on the IC50: it is the point on the concentration scale where inhibition reaches its midpoint.

`COc1ccc(-c2c(C#N)c(N)nc3sc(C(N)=O)c(N)c23)cc1NC(=O)c1ccc(C(F)(F)F)cc1` [Compound A35, 2-aminocarbonyl-3,6-diamino-5-cyano-4-[4-methoxy-3-(4-trifluoromethylbenzoylamino)phenyl]thieno[2,3-b]pyridine]: the IC50 is 5.9 µM.
The figure for `COc1ccc(-c2c(C#N)c(N)nc3sc(C(N)=O)c(N)c23)cc1NC(=O)C(C)C` [Compound A38, 2-aminocarbonyl-3,6-diamino-5-cyano-4-[4-methoxy-3-(prop-2-ylcarbonylamino)phenyl]thieno[2,3-b]pyridine] is 5.5 µM; for `COc1ccc(-c2c(C#N)c(N)nc3sc(C(N)=O)c(N)c23)cc1NC(=O)c1ccccc1C(F)(F)F` [Compound A36, 2-aminocarbonyl-3,6-diamino-5-cyano-4-[4-methoxy-3-(2-trifluoromethylbenzoylamino)phenyl]thieno[2,3-b]pyridine] it is 11 µM; for `COc1ccc(-c2c(C#N)c(N)nc3sc(C(N)=O)c(N)c23)cc1NC(=O)c1ccncc1` [Compound A37, 2-aminocarbonyl-3,6-diamino-5-cyano-4-[4-methoxy-3-(pyridin-4-ylcarbonylamino)phenyl]thieno[2,3-b]pyridine] it is 1.9 µM.
